Read-outs that look alike come from different tables or passages of the source.
Assay: Multicenter, open-label, Phase 1a/b study of HC-7366 in subjects with advanced solid tumors (safety, PK)
Format: in vivo
Details: for ARAUC: accumulation ratio based on AUC0-τ; for ARAUC / CL/F / Ctrough / DAUC0-last / DAUC0-τ / DCmax / tlast / Cmax / half-life / AUC(0-t) / Vd/F / Tmax: human; for Cmax / half-life / AUC(0-t) / Vd/F / Tmax: plasma, po; for Vd/F: read-out: Vz/F
Source text: Identify the maximum tolerated dose (MTD) and/or recommended Phase 2 dose (RP2D) of HC-7366, and evaluate the safety, tolerability, and dose-limiting toxicities (DLTs) of HC-7366 using Form III of the potassium salt of the compound of formula (I) (see Example 6, also referred to within this example as HC-7366-K), in subjects with advanced solid tumors, including: • a. occurrence of DLTs • b. incidence and severity of treatment-emergent adverse events (TEAEs) and treatment related TEAEs according to National Cancer Institute Common Terminology Criteria for Adverse Events (NCI CTCAE) v 5.0 • c. incidence of TEAEs leading to premature discontinuation • d. incidence of laboratory abnormalities, based on NCI CTCAE grades of hematology, serum chemistry, and urinalysis test results • e. incidence of abnormalities observed in 12 lead ECG parameters • f. incidence of abnormalities observed in vital signs measurements
Determine plasma concentration and pharmacokinetic (PK) parameters following treatment with HC-7366 using Form III of the potassium salt of the compound of formula (I) (see Example 6, also referred to within this example as HC-7366-K).
Preliminarily assess the potential antitumor activity of HC-7366 in terms of response rate, disease stabilization, and survival outcomes by assessing: • a. Overall response rate (ORR) to HC-7366 using response evaluation criteria in solid tumors (iRECIST) • b. Duration of response (DOR) to HC-7366 using iRECIST • c. Time to treatment failure (TTF) • d. Progression free survival (PFS) using iRECIST • e. Overall survival (OS)
This is a first in human, multicenter, open label, Phase 1a and 1b dose-escalation and dose-expansion study to establish the maximum tolerated dose, recommended Phase 2 dose, and evaluate the safety and tolerability of QD oral dosing of HC 7366 in a dose escalating fashion in subjects with advanced solid tumors. Up to 40 subjects were enrolled into the Phase 1a dose-escalation part of the study. The study was conducted in the United States at approximately 7 to 10 sites.
Every effort was made to ensure approximately 50% of all subjects enrolled into Phase 1a of this study are subjects with the tumors of special interest including squamous cell carcinoma of the head and neck, colorectal cancer, non-small cell lung cancer, and transitional cell carcinoma of the bladder. […] All subjects in Phase 1b enrolled with clear cell renal cell carcinoma. The Phase 1a study followed a traditional 3+3 design. The starting dose level was 10 mg QD, escalating to 20, 40, 75, 125, and 150 mg QD as safety allows. All doses were administered in the fasting state with water at least 1 hour before food or at least 2 hours after food.
The Phase 1b dose-expansion was at a single dose level of 75 mg based on the safety, tolerability, PK/PD results from Phase 1a to obtain additional safety and preliminary efficacy information. Up to 30 subjects were enrolled in the Phase 1b portion of the study at the 75 mg dose. Replacement patients were enrolled as necessary. Subjects were dosed until unacceptable toxicity, disease progression per immune-related Response Evaluation Criteria in Solid Tumors, discontinuation of treatment for other protocol allowed reason (eg, subject refusal), any other administrative reasons, or after 2 years of treatment, whichever occurs first.
For scheduling purposes, dosing in Phase 1a and 1b occurred in 3 week cycles and computed tomography scans were conducted once every 6 weeks from Cycle 1/Day 1, with the first postbaseline scan after 6 weeks of dosing (precycle 3) until confirmed disease progression, death, start of new anticancer therapy, withdrawal of consent, or end of study, whichever occurs first.
Subjects of Phase 1a and 1b spent Cycle 1/Day 1 (C1D1) in the clinic followed by an optional overnight stay for safety monitoring and PK sampling. Subjects were hospitalized (optional) for administration of the first 2 doses: C1D1 and Cycle 1/Day 2 (C1D2). […]

[1] = multiple once daily oral 10 mg (N = 3), Cycle 1 Day 21, geometric mean
[2] = multiple once daily oral 20 mg (N = 3), Cycle 1 Day 21, geometric mean
[3] = multiple once daily oral 40 mg (N = 8), Cycle 1 Day 21, geometric mean
[4] = multiple once daily oral 75 mg (N = 7), Cycle 1 Day 21, geometric mean
[5] = multiple once daily oral 125 mg (N = 1), Cycle 1 Day 21
[6] = human subjects, multiple once daily oral administration, 10 mg
[7] = human subjects, multiple once daily oral administration, 20 mg
[8] = human subjects, multiple once daily oral administration, 40 mg
[9] = human subjects, multiple once daily oral administration, 75 mg
[10] = human subjects, multiple once daily oral administration, 125 mg (N=1)
[11] = 10 mg, multiple once daily oral 10 mg (N = 3), Cycle 1 Day 21, geometric mean
[12] = 10 mg, single oral dose 10 mg (N = 3), Cycle 1 Day 1, geometric mean
[13] = 20 mg, multiple once daily oral 20 mg (N = 3), Cycle 1 Day 21, geometric mean
[14] = 20 mg, single oral dose 20 mg (N = 3), Cycle 1 Day 1, geometric mean
[15] = 40 mg, multiple once daily oral 40 mg (N = 8), Cycle 1 Day 21, geometric mean
[16] = 40 mg, single oral dose 40 mg (N = 11), Cycle 1 Day 1, geometric mean

Q: For CNC(=O)c1ncn2cc(-c3c(F)ccc(NS(=O)(=O)c4cc(Cl)cnc4OC)c3F)ncc12 [HC-7366, 6-(3-((5-chloro-2-methoxypyridine)-3-sulfonamido)-2,6-difluorophenyl)-N-methylimidazo[1,5-a]pyrazine-1-carboxamide], which ARAUC [1] is on record?
A: 1.45

Q: What about the ARAUC [2] of the same molecule?
A: 1.46

Q: And the ARAUC [3]?
A: 1.89

Q: What about the ARAUC [4] of the same molecule?
A: 1.77

Q: And the ARAUC [5]?
A: 1.13

Q: What about the “dose proportionality of exposure (geometric mean Cmax and AUC)” value (human subjects, 10 to 75 mg, single dose and multiple once daily dosing) of the same molecule?
A: increased approximately proportional to increases in dose

Q: What about the “time by which exposure appeared to be at steady-state” value (human subjects, continuous once daily dosing, trough concentrations) of the same molecule?
A: Cycle 1 Day 8 to Day 15

Q: What about the “dose proportionality of exposure” value (human subjects, increase from 75 to 125 mg, single dose administration) of the same molecule?
A: slightly greater than dose proportional

Q: What about the “geometric mean accumulation ratio (ARAUC)” value [6] of the same molecule?
A: 1.45

Q: What about the “geometric mean linearity ratio (LR)” value [6] of the same molecule?
A: 1.11

Q: And the “geometric mean accumulation ratio (ARAUC)” value [7]?
A: 1.46

Q: What about the “geometric mean linearity ratio (LR)” value [7] of the same molecule?
A: 1.14

Q: What about the “geometric mean accumulation ratio (ARAUC)” value [8] of the same molecule?
A: 1.89

Q: What about the “geometric mean linearity ratio (LR)” value [8] of the same molecule?
A: 1.11

Q: What about the “geometric mean accumulation ratio (ARAUC)” value [9] of the same molecule?
A: 1.77

Q: And the “geometric mean linearity ratio (LR)” value [9]?
A: 1.22

Q: What about the “accumulation ratio (ARAUC)” value [10] of the same molecule?
A: 1.13

Q: And the “linearity ratio (LR)” value [10]?
A: 0.759

Q: What about the CL/F [1] of the same molecule?
A: 0.457 L/h

Q: And the Ctrough [1]?
A: 517 ng/mL

Q: And the DAUC0-last [1]?
A: 1700 ng·h/mL/mg

Q: What about the DAUC0-τ [1] of the same molecule?
A: 2190 ng·h/mL/mg

Q: And the DCmax [1]?
A: 198 ng/mL/mg

Q: What about the tlast (multiple once daily oral 10 mg (N = 3), Cycle 1 Day 21, median) of the same molecule?
A: 12.00 h

Q: What about the CL/F [2] of the same molecule?
A: 0.478 L/h

Q: What about the Ctrough [2] of the same molecule?
A: 674 ng/mL

Q: And the DAUC0-last [2]?
A: 2090 ng·h/mL/mg

Q: What about the DAUC0-τ [2] of the same molecule?
A: 2090 ng·h/mL/mg

Q: What about the DCmax [2] of the same molecule?
A: 185 ng/mL/mg

Q: What about the tlast (multiple once daily oral 20 mg (N = 3), Cycle 1 Day 21, median) of the same molecule?
A: 24.00 h

Q: What about the CL/F [3] of the same molecule?
A: 0.403 L/h

Q: And the Ctrough [3]?
A: 2360 ng/mL

Q: What about the DAUC0-last [3] of the same molecule?
A: 2380 ng·h/mL/mg

Q: What about the DAUC0-τ [3] of the same molecule?
A: 2480 ng·h/mL/mg

Q: And the DCmax [3]?
A: 184 ng/mL/mg

Q: And the tlast (multiple once daily oral 40 mg (N = 8), Cycle 1 Day 21, median)?
A: 24.00 h

Q: What about the CL/F [4] of the same molecule?
A: 0.402 L/h

Q: And the Ctrough [4]?
A: 5010 ng/mL

Q: What about the DAUC0-last [4] of the same molecule?
A: 2210 ng·h/mL/mg

Q: And the DAUC0-τ [4]?
A: 2490 ng·h/mL/mg

Q: What about the DCmax [4] of the same molecule?
A: 190 ng/mL/mg

Q: And the tlast (multiple once daily oral 75 mg (N = 7), Cycle 1 Day 21, median)?
A: 24.00 h

Q: And the CL/F [5]?
A: 0.311 L/h

Q: What about the Ctrough [5] of the same molecule?
A: 3780 ng/mL

Q: What about the DAUC0-last [5] of the same molecule?
A: 2080 ng·h/mL/mg

Q: And the DAUC0-τ [5]?
A: 3210 ng·h/mL/mg

Q: What about the DCmax [5] of the same molecule?
A: 306 ng/mL/mg

Q: What about the Cmax [11] of the same molecule?
A: 1980 ng/mL

Q: What about the half-life [11] of the same molecule?
A: 9.94 h

Q: And the AUC(0-t) (10 mg, multiple once daily oral 10 mg (N = 3), Cycle 1 Day 21, geometric mean, read-out: AUC0-last)?
A: 17000 ng·h/mL

Q: And the Vd/F [11]?
A: 6.55 L

Q: What about the Tmax (10 mg, multiple once daily oral 10 mg (N = 3), Cycle 1 Day 21, median) of the same molecule?
A: 2 h

Q: And the Cmax [12]?
A: 1450 ng/mL

Q: What about the half-life [12] of the same molecule?
A: 11.3 h

Q: What about the AUC(0-t) (10 mg, single oral dose 10 mg (N = 3), Cycle 1 Day 1, geometric mean, read-out: AUC0-24) of the same molecule?
A: 15100 ng·h/mL

Q: And the AUC(0-t) (10 mg, single oral dose 10 mg (N = 3), Cycle 1 Day 1, geometric mean, read-out: AUC0-last)?
A: 15100 ng·h/mL

Q: What about the Vd/F [12] of the same molecule?
A: 8.26 L

Q: And the Tmax (10 mg, single oral dose 10 mg (N = 3), Cycle 1 Day 1, median)?
A: 2 h

Q: What about the Cmax [13] of the same molecule?
A: 3710 ng/mL

Q: What about the half-life [13] of the same molecule?
A: 12.2 h

Q: And the AUC(0-t) (20 mg, multiple once daily oral 20 mg (N = 3), Cycle 1 Day 21, geometric mean, read-out: AUC0-last)?
A: 41900 ng·h/mL

Q: And the Vd/F [13]?
A: 8.4 L

Q: And the Tmax (20 mg, multiple once daily oral 20 mg (N = 3), Cycle 1 Day 21, median)?
A: 2 h

Q: And the Cmax [14]?
A: 2330 ng/mL

Q: What about the half-life [14] of the same molecule?
A: 9.99 h

Q: And the AUC(0-t) (20 mg, single oral dose 20 mg (N = 3), Cycle 1 Day 1, geometric mean, read-out: AUC0-24)?
A: 28700 ng·h/mL

Q: And the AUC(0-t) (20 mg, single oral dose 20 mg (N = 3), Cycle 1 Day 1, geometric mean, read-out: AUC0-last)?
A: 28700 ng·h/mL

Q: And the Vd/F [14]?
A: 7.84 L

Q: What about the Tmax (20 mg, single oral dose 20 mg (N = 3), Cycle 1 Day 1, median) of the same molecule?
A: 4 h

Q: What about the Cmax [15] of the same molecule?
A: 7360 ng/mL

Q: And the half-life [15]?
A: 12.4 h

Q: What about the AUC(0-t) (40 mg, multiple once daily oral 40 mg (N = 8), Cycle 1 Day 21, geometric mean, read-out: AUC0-last) of the same molecule?
A: 95000 ng·h/mL

Q: And the Vd/F [15]?
A: 8.31 L

Q: What about the Tmax (40 mg, multiple once daily oral 40 mg (N = 8), Cycle 1 Day 21, median) of the same molecule?
A: 2 h

Q: What about the Cmax [16] of the same molecule?
A: 4520 ng/mL

Q: And the half-life [16]?
A: 14.8 h

Source: US20260224563A1, “CRYSTALLINE FORMS OF 6-(3-((5-CHLORO-2-METHOXYPYRIDINE)-3-SULFONAMIDO)-2,6-DIFLUOROPHENYL)-N-METHYLIMIDAZO[1,5-A]PYRAZINE-1-CARBOXAMIDE AND METHODS FOR USING THE SAME” (HIBERCELL, INC., priority 2023, published 2026)
